According to patent US20250186379A1, “METHODS AND AGENTS FOR DECREASING INSULIN RESISTANCE” (Whitehead Institute for Biomedical Research, priority 2021, published 2025):
“Also recorded” adds a separate entry of the source.

What was measured:
HepG2 cells = experiment: Glucose production in HepG2 cells; format: cell-based, human
Protocol: Insulin sensitive and resistant cells were cultured in EMEM for 30 minutes and then cells were treated with 0, 0.1, 1 and 10 nM insulin in glucose production media, containing DMEM (Thermo Fisher Scientific, A1443001), 15 mM HEPES (Gibco, 15630-080), 1 mM pyruvate (Sigma Aldrich, P5280), 20 mM lactate (Sigma Aldrich, L7022-5G) for 4-5 hours. Media was removed and glucose production was measured using Amplex™ Red Glucose/Glucose oxidase assay kit (Thermo Fisher Scientific, A22189) according to the manufacturer's specifications.
To wash out insulin, cells were washed with EMEM (ATCC 30-2003) seven times, including: three quick washes, three 5-minute washes and a long 20 minute-wash in EMEM at 37° C. Cells were washed with glucose-free RPMI (Gibco, 11879-020) then cultured in glucose-free RPMI for 3 hours. […] Cells were then processed for metabolite isolation (see below).
Metabolite isolation from HepG2 cells: cells were washed in ice-cold PBS (Life Technologies, AM9625), 500 μl of cold 80% MeOH (shared by the Metabolite Profiling Core Facility) was added per well of a 6-well plate and the plate was placed at −80° C. for at least 15 minutes. Following the −80 incubation, the plate was scraped on dry ice and the solution was transferred to a 1.5 ml tube and then vortexed for 5 minutes. […]

insulin receptor (IR) = experiment: Immunoblot for IR levels in HepG2 cells; format: cell-based, human; settings: insulin resistant HepG2 cells treated with (RM) or without (R) metformin
Protocol: Cells were washed with ice-cold PBS and lysed in Cell Lytic M (Sigma-Aldrich C2978) supplemented with protease and phosphatase inhibitors (Sigma Aldrich, 11873580001 and 4906837001) directly on the wells. Lysates were placed into a 1.5 ml tube and mixed at 4° C. for 20 min and then centrifuged at 13,000 rpm for 15 min. Protein concentration was determined using a BCA Protein Assay Kit (Life Technologies, 23250) according to the manufacturer's instructions. Equal amounts of protein (5-50 μg per sample) were separated on 10% or 12% Bis-Tris gels in 5% XT MOPS running buffer (Bio-Rad Laboratories, 1610788) at 100V until dye front reached the end of the gel. Protein was then transferred to a 0.45 μM PVDF membrane (Millipore, IPVH00010) in ice cold transfer buffer (25 mM Tris, 192 mM glycine, 20% methanol) at 300 mA for 1 hour or 250 mA for 2 hours at 4° C. […] Immunoblot quantification was performed using the “analyze gel” tool on Fiji/ImageJ v2.1.0/153c. […]
Cells were washed with ice-cold PBS (Life Technologies, AM9625) and lysed in Cell Lytic M (Sigma Aldrich C2978) supplemented with protease and phosphatase inhibitors (Sigma Aldrich, 11873580001 and 4906837001) directly on the wells. […] Super natant was collected and protein concentration was determined using a BCA Protein Assay Kit (Life Technologies, 23250) according to the manufacturer's instructions. […]

Row | Compound | glucose production after insulin stimulation (HepG2 cells; cells exposed to pathologic levels (3 nM) of insulin for two days) | glucose production (HepG2 cells; insulin-sensitive HepG2 cells, acute insulin stimulation (FIGS. 22G-22H)) | IR levels (immunoblot for IRb) (insulin receptor (IR))
1 | insulin: insulin (Sigma Aldrich, I9278-5ML) used for acute stimulation and chronic physiological or pathological exposure | unchanged | decreased glucose production | –
2 | CN(C)C(=N)N=C(N)N [metformin, reference compound] | – | – | not due to changes in IR levels; also recorded: does not alter IR protein level in insulin resistant cells
